# Values of other authors in patent publication US20190209701A1, “COMBINATION THERAPY WITH A MEK INHIBITOR, A PD-1 AXIS INHIBITOR, AND A TAXANE” (Genentech, Inc., priority 2016, published 2019).
# Read-outs that look alike come from different tables or passages of the source.
# How the values were obtained:
# [1] = tested on: human tumor cell lines; conditions: through inhibition of MEK1 and MEK2
# [2] = tested on: human tumor xenograft models
# [3] = tested on: cancer patients who harbored a BRAF, NRAS, or KRAS mutation
# [4] = concentration-independent
# [5] = not given; remark: listed apart in the source
# [6] = not given; remark: listed apart in the source
Compound,proliferation of a variety of human tumor cell lines [1],"tumor regression ([2]; dose dependent, highest doses tested, CRC, malignant melanoma, breast carcinoma, lung carcinoma models)",ERK phosphorylation in xenograft tumor models ([2]; xenograft tumor models),response of colorectal cancer (CRC) patients ([3]; 14 CRC patients),"unconfirmed tumor responses ([3]; Stage III of Study MEK4592g, 2 patients)","patients with confirmed partial response (PR) ([3]; Study MEK4592g overall, 6 patients, all melanoma)","patients with progressive disease ([3]; Study MEK4592g overall, 40 patients)",dose linearity of pharmacokinetics (dose range of 0.05 mg/kg (approximately 3.5 mg for 70 kg adult) to 80 mg),"food effect on pharmacokinetics (fed state compared with fasted state, healthy subjects)",mean terminal half-life (t1/2) (oral),"absolute bioavailability (study MEK4952g in healthy subjects, 90% CI: 39.74%, 53.06%)",effect of proton pump inhibitor rabeprazole on pharmacokinetics (with or without high-fat meal vs cobimetinib alone in the fasted state),binding to plasma proteins [4],"Kaplan-Meier estimated overall 24-week progression-free survival (PFS) rate ([5]; Study PCD4989g, 95% CI: 12%, 53%)",anti-tumor activity ([5]; across doses from 1 to 20 mg/kg),exposure of fixed dose 800 mg q2w versus 1200 mg q3w ([6]; 800 mg every two weeks (equivalent to 10 mg/kg q2w) vs Phase III dose of 1200 mg q3w),dose linearity of pharmacokinetics ([6]; doses ≥1 mg/kg every three weeks (q3w))
O=C(c1ccc(F)c(F)c1Nc1ccc(I)cc1F)N1CC(O)([C@@H]2CCCCN2)C1 [Cobimetinib],inhibits proliferation,up to 100%,inhibits ERK phosphorylation,all patients experienced progressive disease,11.1%,6.2%,41.2%,linear pharmacokinetics,not altered,48.8 h,45.9%,minimal effect,95%,–,–,–,–
"Atezolizumab: anti-PD-L1 antibody, CAS Registry Number: 1422185-06-5",–,–,–,–,–,–,–,–,–,–,–,–,–,33%,anti-tumor activity has been observed,equivalent exposure,linear and consistent with typical IgG1 antibodies
